PMC9780888, “4-Isobutylmethcathinone—A Novel Synthetic Cathinone with High In Vitro Cytotoxicity and Strong Receptor Binding Preference of Enantiomers” (Pharmaceuticals, 2022)
Counter-ions that a name gives are not always drawn.

Tests used:
[1] = target: T1, ADRA2B (alpha-2B adrenergic receptor) (Homo sapiens, UniProt P18089); assay: PRESTO-Tango β-arrestin 2 recruitment assay, ADRA2B; assay type: cell-based; conditions: 500 nM
T1 construct: Tango construct (TEV cleavage site and tTA, as described for the dopamine receptor plasmids); host or cells: HTLA (HEK 293-derived)
T1 sequence (P18089 whole entry): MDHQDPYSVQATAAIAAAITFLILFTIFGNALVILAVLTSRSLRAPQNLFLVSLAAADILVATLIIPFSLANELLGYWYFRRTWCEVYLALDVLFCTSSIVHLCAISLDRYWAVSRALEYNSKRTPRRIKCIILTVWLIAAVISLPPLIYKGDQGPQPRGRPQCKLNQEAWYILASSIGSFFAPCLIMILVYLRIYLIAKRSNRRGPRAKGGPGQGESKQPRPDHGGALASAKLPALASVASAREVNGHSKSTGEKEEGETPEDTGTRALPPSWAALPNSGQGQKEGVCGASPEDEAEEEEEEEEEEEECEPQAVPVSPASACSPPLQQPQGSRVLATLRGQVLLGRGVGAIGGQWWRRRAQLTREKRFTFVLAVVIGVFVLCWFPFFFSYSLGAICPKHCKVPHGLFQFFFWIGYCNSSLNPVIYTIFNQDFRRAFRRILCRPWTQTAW
Description: (§1) The HTLA cell line was used for the PRESTO-Tango β-arrestin recruitment assay. The HTLA cells were provided as a gift from the laboratory of Bryan Roth (Roth Lab, USA). It is a human cell line derived from human embryonic kidney cells (HEK 293) stably expressing β-arrestin in a fusion with the tobacco etch virus protease (TEV) protease and the luciferase gene under the control of the transcription factor tetracycline transcriptional activator (tTA). The HTLA cells were cultured under standard incubation conditions (37 °C, 5% CO2, 95% humidity) in DMEM with 10% FBS. […]
(§2) The transfected HTLA cells were incubated for 24 h, and then 1 × 10^4 cells were seeded per well of a white 96-well clear bottom plate (Brand, Germany) in 40 μL of DMEM with 1% charcoal-stripped FBS (Thermo Fisher Scientific, USA). […] After 5 min., the luminescence was measured using a multi-mode microplate reader SpectraMax iD5 (Molecular Devices, San Jose, CA, USA) measuring the entire wavelength spectrum. All samples were measured in quadruplicates. The data were evaluated by Prism 7 software (GraphPad, […], CA, USA). […]
(§3) The error bar represents standard deviation from four replicates. The data were processed and evaluated by GraphPad Prism Software using one-way ANOVA: * p<0.05; ** p<0.01; *** […]

[2] = target: T2, ADRB2 (beta-2 adrenergic receptor) (Homo sapiens, UniProt P07550); assay: PRESTO-Tango β-arrestin 2 recruitment assay, ADRB2; assay type: cell-based
T2 construct: Tango construct (TEV cleavage site and tTA, as described for the dopamine receptor plasmids); host or cells: HTLA (HEK 293-derived)
T2 sequence (P07550 whole entry): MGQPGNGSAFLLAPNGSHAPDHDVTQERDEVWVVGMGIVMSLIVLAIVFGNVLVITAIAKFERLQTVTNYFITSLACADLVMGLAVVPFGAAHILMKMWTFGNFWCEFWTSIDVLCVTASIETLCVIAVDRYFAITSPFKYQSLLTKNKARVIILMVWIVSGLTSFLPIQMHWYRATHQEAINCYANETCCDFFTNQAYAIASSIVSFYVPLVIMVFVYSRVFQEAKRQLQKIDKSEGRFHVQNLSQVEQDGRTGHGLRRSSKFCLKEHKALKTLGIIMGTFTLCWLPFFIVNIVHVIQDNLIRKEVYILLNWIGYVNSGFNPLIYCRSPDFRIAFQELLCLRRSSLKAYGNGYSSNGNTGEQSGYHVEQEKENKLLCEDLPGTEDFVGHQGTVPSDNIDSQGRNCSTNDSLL
Description: as §1, §2, §3

CaCo-2 cells = assay: Fluorescence microscopy of cell morphology, CaCo-2; assay type: cell-based, human; conditions: CaCo-2, 24-h treatment, 100, 300 and 500 µM tested; cells smaller, roundish, in clusters
Description: In addition to the evaluation of IBMcat cytotoxicity in various cell lines, its impact on cell morphology was also examined in CaCo-2 and MRC-5 cells after 24-h treatment. F-actin and cell nuclei were visualized in these cells treated with 100, 300, and 500-µM concentrations of IBMcat and its enantiomers. IBMcat (Figure 7) induced a considerable change in CaCo-2 cell morphology already from 300-µM concentration, the cells were smaller, bore roundish shapes, and grew in clusters when compared to control untreated cells. This could be ascribed to the substantial toxicity of IBMcat manifested already after 24 h at this concentration. No difference was observed between the individual enantiomers.
A total of 1 × 10^5 CaCo-2 and MRC-5 cells were seeded into 35-mm glass-bottom dishes for live-cell imaging ((#1.5, MatTek, USA; Ibidi dishes, Germany). After 16 h, the cells were gently washed with phosphate-buffered saline (PBS; pH 7.4), and then, cultivation media containing 100–500 µM IBMCat was added. Untreated cells and cells treated with the vehicle served as controls. After 24 h of the cell incubation with IBMCat, the cells were gently washed with PBS and then fixed with a 4% solution of formaldehyde (methanol-free, Thermo Fisher, USA) in PBS for 20 min. at 22 °C in the dark. Then, the fixative was discarded, and the cells were washed twice with PBS. […]

Compound | increase in RLU compared to untreated control [1] [fold] | increase in the luminescence signal ([2]; ADRB2, 50 and 100 nM) [fold] | concentration from which a considerable change in cell morphology was induced (CaCo-2 cells) [µM] | increase in the luminescence signal ([2]; ADRB2, 1 and 5 nM) [fold]
CNC(C)C(=O)c1ccc(CC(C)C)cc1.Cl (stereo not shown) [IBMcat, 4-isobutylmethcathinone hydrochloride] | 1.5 | 1.5 | ≥ 300 | –
CN[C@@H](C)C(=O)c1ccc(CC(C)C)cc1 [S-IBMCat, (S)-4-isobutylmethcathinone hydrochloride] | – | – | – | 1.5
